# In patent EP4342530A1, “SORTILIN MODULATORS” (Insusense ApS, priority 2022, dated 2024):
# “And” between values parts separate entries of the source, which are not always exact repeats. Equal values may be shown once.
# Experiments:
# [1] = target: T1, h-Sortilin (Homo sapiens, UniProt Q99523); assay: Neurotensin scintillation proximity assay (displacement of [3H]-neurotensin binding); conditions: 150 nM 6his-Sortilin, 5 nM [3H]-Neurotensin; average of at least 2 determinations; read-out: IC50 [3H]Neurotensin SPA
# T1 sequence (Q99523 78-831): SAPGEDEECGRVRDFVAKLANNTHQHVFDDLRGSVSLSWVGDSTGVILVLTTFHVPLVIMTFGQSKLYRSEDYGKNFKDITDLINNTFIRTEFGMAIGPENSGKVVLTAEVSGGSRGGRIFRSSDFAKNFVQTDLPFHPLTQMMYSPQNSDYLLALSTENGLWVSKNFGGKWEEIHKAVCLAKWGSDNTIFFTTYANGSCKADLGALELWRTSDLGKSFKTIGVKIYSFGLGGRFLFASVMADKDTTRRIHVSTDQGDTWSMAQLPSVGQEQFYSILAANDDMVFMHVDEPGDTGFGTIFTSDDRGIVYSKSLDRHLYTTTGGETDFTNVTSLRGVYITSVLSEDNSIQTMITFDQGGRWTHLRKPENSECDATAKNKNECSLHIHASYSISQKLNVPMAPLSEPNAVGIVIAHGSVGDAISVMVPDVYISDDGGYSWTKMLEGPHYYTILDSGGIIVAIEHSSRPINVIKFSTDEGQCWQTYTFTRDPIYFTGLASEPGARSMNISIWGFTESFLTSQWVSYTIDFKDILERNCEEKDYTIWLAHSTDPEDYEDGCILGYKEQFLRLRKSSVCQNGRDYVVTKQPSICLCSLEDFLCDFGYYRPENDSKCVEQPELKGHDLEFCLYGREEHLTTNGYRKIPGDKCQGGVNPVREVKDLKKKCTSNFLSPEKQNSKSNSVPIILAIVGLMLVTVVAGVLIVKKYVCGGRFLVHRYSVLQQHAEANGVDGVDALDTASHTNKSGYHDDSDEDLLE
# Protocol: The exemplified compounds of the invention were tested in a Neurotensin (NTS) scintillation proximity assay (SPA). NTS, which is a 13 amino acid neuropeptide, is a sortilin ligand. The IC50 is a measure of the amount of the compound required to inhibit the binding of NTS to sortilin by 50%. The skilled person will recognise that the lower the IC50 value, the less of the compound needed to achieve the desired effect, and as a result, the chances of undesirable off-target effects are reduced.
# Compound affinity was determined by measuring the displacement of [3H]-neurotensin binding to h-Sortilin in SPA format. Total volume of 40 µl in 50 mM HEPES pH 7.4 assay buffer containing 100 mM NaCl, 2.0 mM CaCl2, 0.1% BSA and 0.1% Tween-20. Compound pre-incubation for 30 minutes at room temperature with 150 nM of 6his-Sortilin before 5 nM [3H]-Neurotensin and Ni chelate imaging beads (Perkin Elmer) were added, after 6 hours the plate was read on a ViewLux with 360 s exposure time. Dose-response evaluation of compounds was performed with 8 concentrations of drugs (covering 3 decades). IC50 values were calculated by nonlinear regression using the sigmoid concentration-response (variable slope) using CDD Vault software. All values reported are average of at least 2 determinations.
# [2] = target: T2, Sortilin (Homo sapiens, UniProt Q99523); assay: Creoptix (GCI) binding kinetics, human Sortilin; conditions: Species Human, screened at 1 µM, 25 degrees Celsius
# T2 construct: purchased Bio-Techne Ltd 3154-ST-050
# T2 sequence (Q99523 78-755 limits assumed): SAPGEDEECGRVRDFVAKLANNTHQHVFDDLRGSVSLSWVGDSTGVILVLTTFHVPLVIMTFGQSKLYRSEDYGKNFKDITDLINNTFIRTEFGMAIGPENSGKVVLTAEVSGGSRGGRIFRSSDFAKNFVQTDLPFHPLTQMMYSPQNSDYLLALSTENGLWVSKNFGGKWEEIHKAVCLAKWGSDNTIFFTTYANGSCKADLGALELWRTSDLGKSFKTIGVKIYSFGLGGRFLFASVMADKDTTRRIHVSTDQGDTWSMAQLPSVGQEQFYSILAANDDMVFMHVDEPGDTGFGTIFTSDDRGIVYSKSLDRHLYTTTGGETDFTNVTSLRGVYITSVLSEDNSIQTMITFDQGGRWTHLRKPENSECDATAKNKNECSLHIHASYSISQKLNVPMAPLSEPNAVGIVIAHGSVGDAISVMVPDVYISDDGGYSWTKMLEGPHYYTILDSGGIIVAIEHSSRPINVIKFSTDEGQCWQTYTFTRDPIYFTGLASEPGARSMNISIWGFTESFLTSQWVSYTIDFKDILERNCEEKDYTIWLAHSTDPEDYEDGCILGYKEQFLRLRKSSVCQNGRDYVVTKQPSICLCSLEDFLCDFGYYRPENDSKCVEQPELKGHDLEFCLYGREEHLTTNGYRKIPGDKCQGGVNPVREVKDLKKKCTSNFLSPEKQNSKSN
# Protocol: Creoptix (GCI) method - using SEQ ID NO.4 (Murine sortillin)
# A protein, bound to a surface, is bathed in a solution containing potential ligands giving rise to binding kinetics to generate Kon and Koff rates, as well as a Kd.
# All buffers described were filtered using a 0.2µm filter (Product number: 10300461, Nalgene) and degassed for 15 minutes prior to use.
# A flow cell temperature of 25 degrees Celsius was used throughout the experiment.
# A 4PCH chip was conditioned across all flow cells using 0.2 X concentration running buffer (running buffer composition: 1XHBS-N, pH 7.4, 3.4 mM EDTA, 1% DMSO) using pre-set conditioning wizard (WAVE control software) injecting: 0.1 M borate, 1 M NaCl (pH 9) followed by three start-up injections of 0.2 X running buffer.
# A buffer exchange was performed and 1x running buffer (1XHBS-N, pH 7.4, 3.4 mM EDTA, 1% DMSO) used during the immobilisation procedure: An initial injection of EDC/NHS (mixed in 1:1 ratio) was performed across all 4-flow cells to activate the surface for amine coupling of ligands.
# Recombinant Sortilin aliquots were thawed quickly by hand and centrifuged at 13,300 rpm for 10 minutes. A 10 µg/ml protein solution was then made in pH 5.0 acetate and injected once for 20 minutes over flow-cells 2, 3 and 4 for human, human (flow cells 2 & 3), and mouse Sortilin respectively followed by a 60 second dissociation period.
# A final 7-minute passivation injection of 50 mM tris was used across all flow cells.
# A flow rate of 10 µl/min was used for all conditioning and immobilisation cycles.
# Compounds were screened at 1 µM using the in-built 'intermediate binders' settings: 100 ul/min, 45 s baseline, 25 s association, 300 s dissociation, with blanks every 5th sample and a DMSO correction (1.5 % DMSO at the start and end of the experiment as well as every 20 cycles. An acquisition rate of 10 Hz was used throughout the experiment.
# Compounds were screened at a final assay concentration of 1 µM and a final DMSO concentration was 1 %. To achieve this, compounds were diluted in DMSO from 10 mM stocks to 100 µM (100 x final assay concentration) then diluted 1:100 in running buffer which contained no DMSO to establish a final assay concentration of compound of 1 µM and a final DMSO concentration of 1 % [DMSO].
# Compounds and DMSO were mixed by plate shaking at 1000 rpm for 60 seconds using a Bioshake instrument.
# A flow rate of 100 µl/min was used throughout the experiment.
# Data was evaluated using the RAPID kinetic analysis tool in the GCI WAVE_control software with data fitted using a standard 1:1 kinetic BioModel.
Compound,IC50 [1] [µM],Kd ([2]; Form of Compound Free acid),Kd ([2]; Form of Compound Mesylate salt) [µM]
"CC(C)(C)CC[C@H](NCc1ccc2c(c1)CCOC2)C(=O)O [Example 1, (S)-2-((isochroman-6-ylmethyl)amino)-5,5-dimethylhexanoic acid]",0.27,0.107 µM,–
"CC(C)(C)CC[C@H](NCc1cnc2c(c1)COCC2)C(=O)O [Example 2, (2S)-5,5-dimethyl-2-[({5H,7H,8H-pyrano[4,3-b]pyridin-3-yl}methyl)amino]hexanoic acid]",0.35,0.172 µM,–
"CC(C)(C)CC[C@H](NCc1ccc2c(c1)OCCC2)C(=O)O [Example 5, (2S)-2-{[(3,4-dihydro-2H-1-benzopyran-7-yl)methyl]amino}-5,5-dimethylhexanoic acid]",0.31,0.0634 µM,–
"CC(C)(C)CC[C@H](NCc1ccc2c(c1)CCC2)C(=O)O [Example 6, (2S)-2-{[(2,3-dihydro-1H-inden-5-yl)methyl]amino}-5,5-dimethylhexanoic acid]",0.21,0.117 µM,–
"CC(C)(C)CC[C@H](NCc1cnc2c(c1)CCCC2)C(=O)O [Example 7, (S)-5,5-dimethyl-2-(((5,6,7,8-tetrahydroquinolin-3-yl)methyl)amino)hexanoic acid]",0.14,0.264 µM,–
"CC(C)(C)CC[C@H](NCc1cnc2c(c1)CCC2)C(=O)O [Example 8, (2S)-2-[({5H,6H,7H-cyclopenta[b]pyridin-3-yl}methyl)amino]-5,5-dimethylhexanoic acid]",0.5,0.191 µM,–
"C[C@@H](N[C@@H](CCC(C)(C)C)C(=O)O)c1ccc2c(c1)CCCC2 [Example 11, (S)-5,5-dimethyl-2-(((R)-1-(5,6,7,8-tetrahydronaphthalen-2-yl)ethyl)amino)hexanoic acid]",0.12,0.0366 µM,0.0407
C[C@@H](N[C@@H](CCC(C)(C)C)C(=O)O)c1ccc2c(c1)CCC2 [Example 13],0.21,–,0.0575
C[C@H](N[C@@H](CCC(C)(C)C)C(=O)O)c1ccc2c(c1)CCC2 [Example 14],0.28,–,0.0351
"CC(C)(C)CC[C@H](NCc1ccc2c(c1)NCCC2)C(=O)O [Example 17, (2S)-5,5-dimethyl-2-{[(1,2,3,4-tetrahydroquinolin-7-yl)methyl]amino}hexanoic acid]",0.19,0.0973 µM,–
"CN1C(=O)COc2ccc(CN[C@@H](CCC(C)(C)C)C(=O)O)cc21 [Example 21, (2S)-5,5-dimethyl-2-{[(4-methyl-3-oxo-3,4-dihydro-2H-1,4-benzoxazin-6-yl)methyl]amino}hexanoic acid]",0.26,0.164 µM,–
"Cn1c(=O)oc2cc(CN[C@@H](CCC(C)(C)C)C(=O)O)ccc21 [Example 22, (2S)-5,5-dimethyl-2-{[(3-methyl-2-oxo-2,3-dihydro-1,3-benzoxazol-6-yl)methyl]amino}hexanoic acid]",0.47,0.35 µM,–
"CN1C(=O)COc2cc(CN[C@@H](CCC(C)(C)C)C(=O)O)ccc21 [Example 25, (2S)-5,5-dimethyl-2-{[(4-methyl-3-oxo-3,4-dihydro-2H-1,4-benzoxazin-7-yl)methyl]amino}hexanoic acid]",0.95,0.563 µM and 0.158 µM,–
C[C@@H](N[C@@H](CCC(C)(C)C)C(=O)O)c1ccc(Oc2ccccc2)nc1 [Example 43],0.41,0.0683 µM,–
C[C@H](N[C@@H](CCC(C)(C)C)C(=O)O)c1ccc(Oc2ccccc2)nc1 [Example 44],0.74,0.127 µM,–

# Now from value to compound, other results behind:
IC50 [1] [µM],Kd ([2]; Form of Compound Free acid),Compound,Kd ([2]; Form of Compound Mesylate salt) [µM]
0.22,0.317 µM,"CN1C(=O)CCc2ccc(CN[C@@H](CCC(C)(C)C)C(=O)O)cc21 [Example 28, (2S)-5,5-dimethyl-2-{[(1-methyl-2-oxo-1,2,3,4-tetrahydroquinolin-7-yl)methyl]amino}hexanoic acid]",–
0.13,0.028 µM,"CC(C)(C)CC[C@H](N[C@@H](c1cnc2c(c1)CCCC2)C(F)(F)F)C(=O)O [Example 33, (2S)-5,5-dimethyl-2-{[(1S)-2,2,2-trifluoro-1-(5,6,7,8-tetrahydroquinolin-3-yl)ethyl]amino}hexanoic acid]",–
0.82,0.216 µM,CC(C)(C)CC[C@H](NCc1cccc(Oc2ccccc2)c1)C(=O)O [Example 34],–
0.34,–,"CC(C)(C)CC[C@H](NCc1ccc(Oc2ccccc2)nc1)C(=O)O [Example 38, (2S)-5,5-dimethyl-2-{[(6-phenoxypyridin-3-yl)methyl]amino}hexanoic acid]",0.0491
0.12,0.0439 µM,CC(C)(C)CC[C@H](N[C@@H](c1ccc2c(c1)CCCC2)C(F)F)C(=O)O [Example 45],–
0.13,0.0434 µM,CC(C)(C)CC[C@H](N[C@@H](c1ccc2c(c1)OCCC2)C(F)F)C(=O)O [Example 46],–
0.16,0.0753 µM,CC(C)(C)CC[C@H](N[C@@H](c1ccc2c(c1)CCCC2)C(F)(F)F)C(=O)O [Example 47],–
–,0.0462 µM,C[C@@H](N[C@@H](CCC(C)(C)C)C(=O)O)c1ccc2c(c1)N(C)CCC2 [Example 48],–
0.22,0.504 µM,CC(C)(C)CC[C@H](N[C@@H](c1ccc2c(c1)CCC2)C(F)(F)F)C(=O)O [Example 49],–
